According to ChEMBL document CHEMBL1201862, “PubChem BioAssay data set” (2004):
Active and inactive are the calls of the source.

Key:
[1] = target: Dual specificity tyrosine-phosphorylation-regulated kinase 1A (Rattus norvegicus, UniProt Q63470); assay type: biochemical, Homo sapiens
cells = assay type: functional
[2] = target: Dual specificity protein kinase CLK1 (Homo sapiens, UniProt P49759); assay: CLK1 kinase inhibitors, off-target check, dose response, selectivity assay for Dyrk1A inhibitor project, biochemical, cherry-picked samples (AID 588811)
Chain of Dual specificity protein kinase CLK1 (P49759 whole entry): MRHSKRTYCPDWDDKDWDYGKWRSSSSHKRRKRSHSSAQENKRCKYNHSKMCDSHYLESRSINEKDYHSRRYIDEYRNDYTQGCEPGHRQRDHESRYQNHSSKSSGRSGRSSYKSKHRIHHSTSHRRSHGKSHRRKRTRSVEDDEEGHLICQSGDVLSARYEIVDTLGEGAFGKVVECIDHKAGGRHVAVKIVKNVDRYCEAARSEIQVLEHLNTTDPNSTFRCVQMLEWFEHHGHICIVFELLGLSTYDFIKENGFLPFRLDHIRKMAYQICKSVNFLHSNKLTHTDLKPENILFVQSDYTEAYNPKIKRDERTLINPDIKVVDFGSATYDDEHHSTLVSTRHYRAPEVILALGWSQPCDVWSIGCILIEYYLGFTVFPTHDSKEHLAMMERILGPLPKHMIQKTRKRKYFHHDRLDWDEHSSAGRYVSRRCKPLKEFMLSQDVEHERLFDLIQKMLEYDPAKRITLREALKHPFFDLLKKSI

[3] = target: T1, Endoribonuclease toxin MazF (Escherichia coli K-12, UniProt P0AE70); assay: fluorescent RNA oligo signal without MazF, dose response, counter-screen for MazEF activator project, biochemical, fluorescence, single-stranded RNase substrate (AID 588502); assay type: functional
T1 sequence (P0AE70 whole entry): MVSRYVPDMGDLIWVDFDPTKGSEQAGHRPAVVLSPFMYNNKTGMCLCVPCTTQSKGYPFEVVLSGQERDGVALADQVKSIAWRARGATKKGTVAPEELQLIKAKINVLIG

[4] = target: T1, Endoribonuclease toxin MazF; assay: MazF toxin RNase activators, dose response, biochemical, fluorescence, single-stranded RNA substrate, uHTS hits (AID 588481); assay type: functional
[5] = target: T2, Corticotropin-releasing factor receptor 2/Corticotropin-releasing factor-binding protein (Homo sapiens, UniProt P24387+Q13324); assay: activators of CRF receptor 2 with binding protein – uHTS hits, confirmation (AID 602473); assay type: functional; conditions: read-out: EC50_Mean
T2 sequence (Q13324 whole entry): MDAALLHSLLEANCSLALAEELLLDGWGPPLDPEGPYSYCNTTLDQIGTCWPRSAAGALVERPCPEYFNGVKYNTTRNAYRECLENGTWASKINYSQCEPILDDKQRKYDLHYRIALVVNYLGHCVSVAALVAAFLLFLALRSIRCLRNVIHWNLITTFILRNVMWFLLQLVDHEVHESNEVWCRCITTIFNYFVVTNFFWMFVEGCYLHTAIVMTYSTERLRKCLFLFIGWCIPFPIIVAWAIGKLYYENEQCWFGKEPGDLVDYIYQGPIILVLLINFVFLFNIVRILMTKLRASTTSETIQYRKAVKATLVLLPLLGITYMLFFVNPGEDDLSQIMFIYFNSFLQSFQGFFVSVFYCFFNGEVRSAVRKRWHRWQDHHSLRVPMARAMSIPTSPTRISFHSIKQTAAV
T2 sequence (P24387 whole entry): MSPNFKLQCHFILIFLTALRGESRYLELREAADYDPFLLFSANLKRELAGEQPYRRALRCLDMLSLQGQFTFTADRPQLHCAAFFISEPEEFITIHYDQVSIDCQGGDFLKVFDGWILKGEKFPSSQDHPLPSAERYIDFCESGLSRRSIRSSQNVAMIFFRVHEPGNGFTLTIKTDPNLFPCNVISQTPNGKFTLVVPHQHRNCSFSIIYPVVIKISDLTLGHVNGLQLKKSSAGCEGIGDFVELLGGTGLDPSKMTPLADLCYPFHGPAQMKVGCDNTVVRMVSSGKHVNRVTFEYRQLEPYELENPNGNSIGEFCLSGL

[6] = target: T3, Sentrin-specific protease 7 (Homo sapiens, UniProt Q9BQF6); assay: SENP7 protease inhibitors, SAR follow-up, biochemical, luminescence (AID 504497); assay type: functional
T3 sequence (Q9BQF6 whole entry): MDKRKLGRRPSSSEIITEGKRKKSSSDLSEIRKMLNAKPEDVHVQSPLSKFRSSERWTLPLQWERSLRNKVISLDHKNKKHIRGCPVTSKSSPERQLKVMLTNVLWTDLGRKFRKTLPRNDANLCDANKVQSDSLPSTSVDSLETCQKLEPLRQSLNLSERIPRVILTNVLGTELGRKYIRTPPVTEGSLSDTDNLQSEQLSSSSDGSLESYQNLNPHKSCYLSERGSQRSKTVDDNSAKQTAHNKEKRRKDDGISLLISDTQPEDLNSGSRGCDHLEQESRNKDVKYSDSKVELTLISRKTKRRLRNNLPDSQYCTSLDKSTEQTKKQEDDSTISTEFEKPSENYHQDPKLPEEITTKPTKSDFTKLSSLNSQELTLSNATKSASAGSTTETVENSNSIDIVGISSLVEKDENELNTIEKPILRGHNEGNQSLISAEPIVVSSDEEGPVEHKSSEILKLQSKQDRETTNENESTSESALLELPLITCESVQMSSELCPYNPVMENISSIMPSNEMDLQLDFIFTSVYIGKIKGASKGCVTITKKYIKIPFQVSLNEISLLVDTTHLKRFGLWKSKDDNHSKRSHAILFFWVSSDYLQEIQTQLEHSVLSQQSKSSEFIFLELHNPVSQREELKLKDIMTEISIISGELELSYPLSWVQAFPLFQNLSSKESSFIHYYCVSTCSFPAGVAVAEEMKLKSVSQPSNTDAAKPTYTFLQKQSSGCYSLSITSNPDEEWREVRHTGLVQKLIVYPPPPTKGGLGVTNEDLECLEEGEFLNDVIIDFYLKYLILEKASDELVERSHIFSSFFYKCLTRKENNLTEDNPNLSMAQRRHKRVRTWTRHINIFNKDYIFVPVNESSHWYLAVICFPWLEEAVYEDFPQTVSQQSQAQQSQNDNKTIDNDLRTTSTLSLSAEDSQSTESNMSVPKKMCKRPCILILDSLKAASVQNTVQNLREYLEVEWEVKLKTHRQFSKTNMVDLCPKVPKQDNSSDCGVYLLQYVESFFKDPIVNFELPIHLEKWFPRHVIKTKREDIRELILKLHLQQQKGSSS

[7] = target: T4, Sentrin-specific protease 8 (Homo sapiens, UniProt Q96LD8); assay: SENP8 protease inhibitors, SAR follow-up, biochemical, luminescence (AID 504501); assay type: functional
T4 sequence (Q96LD8 whole entry): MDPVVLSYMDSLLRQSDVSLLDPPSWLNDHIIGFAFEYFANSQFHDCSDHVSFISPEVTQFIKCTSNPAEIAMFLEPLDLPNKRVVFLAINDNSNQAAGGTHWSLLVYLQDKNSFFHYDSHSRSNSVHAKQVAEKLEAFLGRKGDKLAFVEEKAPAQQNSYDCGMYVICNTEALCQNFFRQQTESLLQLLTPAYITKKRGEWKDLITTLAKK

Caspase-3 = target: T5, Caspase-3 (Homo sapiens, UniProt P42574); assay: SAR Analysis of small molecule inhibitors of Sentrin-specific proteases (SENPs) using a Caspase-3 Selectivity assay. [Related pubchem assays (depositor defined):AID2540, AID2599, AID434973, AID489001]; assay type: functional
T5 sequence (P42574 whole entry): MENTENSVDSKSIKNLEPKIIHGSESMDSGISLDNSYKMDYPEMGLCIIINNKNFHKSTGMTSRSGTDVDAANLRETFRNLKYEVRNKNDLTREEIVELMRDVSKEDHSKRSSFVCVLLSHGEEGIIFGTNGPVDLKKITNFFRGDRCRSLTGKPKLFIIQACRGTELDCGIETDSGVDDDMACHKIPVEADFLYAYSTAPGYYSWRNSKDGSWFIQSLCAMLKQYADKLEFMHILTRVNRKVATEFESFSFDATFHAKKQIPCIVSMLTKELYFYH

[8] = target: T6, Sentrin-specific protease 6 (Homo sapiens, UniProt Q9GZR1); assay: SAR Analysis of small molecule inhibitors of Sentrin-specific protease 6 (SENP6) using a Luminescent assay. [Related pubchem assays (depositor defined):AID2582, AID2599]; assay type: functional
T6 sequence (Q9GZR1 whole entry): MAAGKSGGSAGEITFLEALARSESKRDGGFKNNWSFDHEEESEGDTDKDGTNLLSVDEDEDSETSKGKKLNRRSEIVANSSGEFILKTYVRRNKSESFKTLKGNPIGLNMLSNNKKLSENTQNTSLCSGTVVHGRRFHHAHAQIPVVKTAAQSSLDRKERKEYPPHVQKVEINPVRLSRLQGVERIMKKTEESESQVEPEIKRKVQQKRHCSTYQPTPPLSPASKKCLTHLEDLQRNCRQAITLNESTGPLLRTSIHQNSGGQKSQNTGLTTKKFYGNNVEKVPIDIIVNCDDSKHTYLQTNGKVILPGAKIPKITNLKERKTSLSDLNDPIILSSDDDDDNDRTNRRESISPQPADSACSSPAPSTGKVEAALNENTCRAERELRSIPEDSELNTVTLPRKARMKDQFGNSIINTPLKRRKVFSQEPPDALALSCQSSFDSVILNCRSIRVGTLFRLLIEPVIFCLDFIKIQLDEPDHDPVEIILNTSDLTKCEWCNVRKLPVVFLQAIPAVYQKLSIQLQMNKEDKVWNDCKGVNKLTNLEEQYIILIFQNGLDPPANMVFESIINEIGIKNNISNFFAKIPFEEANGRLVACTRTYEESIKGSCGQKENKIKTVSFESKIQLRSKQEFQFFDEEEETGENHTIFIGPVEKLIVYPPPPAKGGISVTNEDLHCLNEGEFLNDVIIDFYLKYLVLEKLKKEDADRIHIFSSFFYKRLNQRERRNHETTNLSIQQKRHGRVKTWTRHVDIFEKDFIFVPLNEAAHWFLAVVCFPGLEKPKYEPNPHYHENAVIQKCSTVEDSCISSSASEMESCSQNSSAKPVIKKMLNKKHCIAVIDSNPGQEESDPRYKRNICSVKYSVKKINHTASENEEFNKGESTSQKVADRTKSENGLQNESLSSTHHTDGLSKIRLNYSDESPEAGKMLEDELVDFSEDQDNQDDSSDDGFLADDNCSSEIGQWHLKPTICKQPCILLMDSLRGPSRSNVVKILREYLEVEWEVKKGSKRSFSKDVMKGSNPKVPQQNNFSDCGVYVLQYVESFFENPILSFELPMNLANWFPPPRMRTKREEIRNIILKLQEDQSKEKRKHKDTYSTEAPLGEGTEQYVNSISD

Prothrombin = Prothrombin (Bos taurus, UniProt P00735); assay: thrombin inhibition, dose response, biochemical, fluorescence polarization, uHTS hits (AID 602369); assay type: functional
[9] = target: 26S proteasome non-ATPase regulatory subunit 14 (Homo sapiens, UniProt O00487); assay: inhibition of proteasome subunit RPN11 – biochemical, fluorescence polarization, uHTS hits, confirmation (AID 602368); assay type: functional
Chain of 26S proteasome non-ATPase regulatory subunit 14 (O00487 whole entry): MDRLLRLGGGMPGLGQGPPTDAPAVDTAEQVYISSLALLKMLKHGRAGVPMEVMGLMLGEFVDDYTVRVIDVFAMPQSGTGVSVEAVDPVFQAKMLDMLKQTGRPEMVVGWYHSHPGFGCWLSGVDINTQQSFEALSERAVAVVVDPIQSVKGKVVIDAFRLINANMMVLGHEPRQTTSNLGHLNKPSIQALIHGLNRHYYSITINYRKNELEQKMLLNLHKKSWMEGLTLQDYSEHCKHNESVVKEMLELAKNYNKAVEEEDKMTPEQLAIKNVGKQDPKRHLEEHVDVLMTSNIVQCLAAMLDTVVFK

[10] = target: 72 kDa type IV collagenase (Homo sapiens, UniProt P08253); assay: Dose Response validation of uHTS RPN11 inhibitor hits using a MMP-2 Fluorescence assay.; assay type: functional
Chain of 72 kDa type IV collagenase (P08253 whole entry): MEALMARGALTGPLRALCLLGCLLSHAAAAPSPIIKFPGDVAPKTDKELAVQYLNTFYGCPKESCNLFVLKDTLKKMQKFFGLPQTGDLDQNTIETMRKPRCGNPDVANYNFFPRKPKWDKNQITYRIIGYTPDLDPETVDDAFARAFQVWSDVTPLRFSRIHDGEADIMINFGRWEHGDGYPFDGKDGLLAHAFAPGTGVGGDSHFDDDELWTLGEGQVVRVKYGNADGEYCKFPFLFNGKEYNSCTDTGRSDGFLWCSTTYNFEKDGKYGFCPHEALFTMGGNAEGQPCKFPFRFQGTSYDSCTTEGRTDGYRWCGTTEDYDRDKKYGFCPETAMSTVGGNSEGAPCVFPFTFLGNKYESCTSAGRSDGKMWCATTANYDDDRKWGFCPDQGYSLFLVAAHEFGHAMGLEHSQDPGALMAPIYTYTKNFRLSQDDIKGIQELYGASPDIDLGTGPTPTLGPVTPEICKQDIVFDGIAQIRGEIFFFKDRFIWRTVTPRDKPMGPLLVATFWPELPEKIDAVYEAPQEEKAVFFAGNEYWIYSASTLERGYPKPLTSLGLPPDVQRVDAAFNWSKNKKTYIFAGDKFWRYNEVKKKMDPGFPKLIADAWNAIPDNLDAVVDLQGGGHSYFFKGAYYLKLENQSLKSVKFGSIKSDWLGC

Phospholipase A2 = Phospholipase A2 (Homo sapiens, UniProt P04054); assay type: functional;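 also: confirmatory dose-response counterscreen on phospholipase A2, testing hits that came from an ultra-high-throughput screen for ATG4B inhibitors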
Chain of Phospholipase A2 (P04054 whole entry): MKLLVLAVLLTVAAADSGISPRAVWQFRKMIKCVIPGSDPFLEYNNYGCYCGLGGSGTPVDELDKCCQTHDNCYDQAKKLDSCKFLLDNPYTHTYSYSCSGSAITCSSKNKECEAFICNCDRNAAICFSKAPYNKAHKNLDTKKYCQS

Cysteine protease ATG4B = target: T7, Cysteine protease ATG4B (Homo sapiens, UniProt Q9Y4P1); assay type: functional;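 also: Fluorescence-based dose-response confirmation assay measuring inhibition of ATG4B activity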
T7 sequence (Q9Y4P1 whole entry): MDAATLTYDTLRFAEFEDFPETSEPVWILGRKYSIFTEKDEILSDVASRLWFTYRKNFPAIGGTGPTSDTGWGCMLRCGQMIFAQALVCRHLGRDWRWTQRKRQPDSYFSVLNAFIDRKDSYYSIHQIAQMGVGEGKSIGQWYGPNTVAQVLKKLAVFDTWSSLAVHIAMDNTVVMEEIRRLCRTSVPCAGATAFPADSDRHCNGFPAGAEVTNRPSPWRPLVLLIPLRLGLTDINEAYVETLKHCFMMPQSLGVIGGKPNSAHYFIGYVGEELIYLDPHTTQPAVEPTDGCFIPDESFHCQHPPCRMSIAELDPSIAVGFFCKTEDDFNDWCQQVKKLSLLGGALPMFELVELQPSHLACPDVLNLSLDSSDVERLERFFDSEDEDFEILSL

Nonstructural protein 1 = Nonstructural protein 1 (Influenza A virus, UniProt Q194T2); assay type: functional, Influenza A virus (A/California/07/2009(H1N1))
Chain of Nonstructural protein 1 (Q194T2 whole entry): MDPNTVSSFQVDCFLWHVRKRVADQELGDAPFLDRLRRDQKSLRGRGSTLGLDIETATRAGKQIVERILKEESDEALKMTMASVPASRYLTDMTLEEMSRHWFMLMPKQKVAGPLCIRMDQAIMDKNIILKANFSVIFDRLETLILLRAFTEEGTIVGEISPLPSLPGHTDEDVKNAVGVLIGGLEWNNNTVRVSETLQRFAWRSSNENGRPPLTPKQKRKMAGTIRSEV

[11] = target: Heat shock protein HSP 90-alpha (Homo sapiens, UniProt P07900); assay type: functional, organism-based
HEK293 [12] = assay: cells; conditions: Homo sapiens
HEK293 [13] = assay: inhibitors of LMP1-driven NF-kB reporter, dose response, cell-based, HEK293, luciferase, cherry-pick (AID 588343); assay type: functional; conditions: Homo sapiens
HEK293 [14] = assay: cells; conditions: Homo sapiens; remark: listed apart in the source
Cytochrome P450 2C9 = Cytochrome P450 2C9 (Homo sapiens, UniProt P11712)
Chain of Cytochrome P450 2C9 (P11712 whole entry): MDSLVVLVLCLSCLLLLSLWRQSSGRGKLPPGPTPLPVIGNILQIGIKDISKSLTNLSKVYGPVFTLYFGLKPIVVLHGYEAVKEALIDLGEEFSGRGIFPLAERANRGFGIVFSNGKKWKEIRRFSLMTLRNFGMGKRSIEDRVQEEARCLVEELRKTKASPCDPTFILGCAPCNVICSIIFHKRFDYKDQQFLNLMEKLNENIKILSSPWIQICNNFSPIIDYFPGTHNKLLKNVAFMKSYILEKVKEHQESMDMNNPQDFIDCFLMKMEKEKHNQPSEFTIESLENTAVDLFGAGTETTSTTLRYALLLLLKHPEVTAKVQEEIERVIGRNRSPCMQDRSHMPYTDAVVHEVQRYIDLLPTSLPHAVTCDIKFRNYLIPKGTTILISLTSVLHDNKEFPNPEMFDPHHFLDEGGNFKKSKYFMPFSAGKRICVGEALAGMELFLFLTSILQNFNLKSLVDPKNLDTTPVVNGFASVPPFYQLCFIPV

Cytochrome P450 2D6 = Cytochrome P450 2D6 (Homo sapiens, UniProt P10635);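 also: CYP2D6 member of a cytochrome P450 panel assay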
Chain of Cytochrome P450 2D6 (P10635 whole entry): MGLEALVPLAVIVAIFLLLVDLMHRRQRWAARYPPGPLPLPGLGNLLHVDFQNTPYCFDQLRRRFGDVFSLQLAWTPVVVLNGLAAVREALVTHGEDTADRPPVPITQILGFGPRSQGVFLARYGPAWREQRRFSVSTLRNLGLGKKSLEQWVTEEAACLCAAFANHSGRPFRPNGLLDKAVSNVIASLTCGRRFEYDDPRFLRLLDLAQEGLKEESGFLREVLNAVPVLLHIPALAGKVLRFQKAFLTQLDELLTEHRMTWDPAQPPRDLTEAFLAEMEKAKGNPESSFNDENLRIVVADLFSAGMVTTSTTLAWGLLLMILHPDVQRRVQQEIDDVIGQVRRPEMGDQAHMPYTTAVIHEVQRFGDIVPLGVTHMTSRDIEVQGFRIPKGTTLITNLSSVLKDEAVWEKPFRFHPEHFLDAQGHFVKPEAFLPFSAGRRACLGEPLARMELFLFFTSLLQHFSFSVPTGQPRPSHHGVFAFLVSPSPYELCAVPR

Cytochrome P450 3A4 = Cytochrome P450 3A4 (Homo sapiens, UniProt P08684);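 also: CYP3A4 tested as one member of a cytochrome P450 panel screen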
Chain of Cytochrome P450 3A4 (P08684 whole entry): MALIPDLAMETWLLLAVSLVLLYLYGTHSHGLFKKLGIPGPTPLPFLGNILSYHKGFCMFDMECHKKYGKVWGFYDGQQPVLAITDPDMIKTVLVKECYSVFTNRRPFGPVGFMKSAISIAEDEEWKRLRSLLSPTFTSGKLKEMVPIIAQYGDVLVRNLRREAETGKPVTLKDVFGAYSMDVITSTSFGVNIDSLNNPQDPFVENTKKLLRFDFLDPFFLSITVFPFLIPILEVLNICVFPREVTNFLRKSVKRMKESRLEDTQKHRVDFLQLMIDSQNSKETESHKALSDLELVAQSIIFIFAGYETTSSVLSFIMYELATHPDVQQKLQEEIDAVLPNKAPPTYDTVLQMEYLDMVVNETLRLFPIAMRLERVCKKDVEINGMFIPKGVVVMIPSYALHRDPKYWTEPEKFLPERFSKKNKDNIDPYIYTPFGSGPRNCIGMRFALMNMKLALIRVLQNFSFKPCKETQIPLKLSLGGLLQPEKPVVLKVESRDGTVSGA

SMILES: O=C(O)COc1ccc2occ(C(=O)c3ccccc3)c2c1
- AC50 [1]: 6.49 µM (active)
- IC50 (cells): 12.3 µM (active)

SMILES: COc1cccc(NC(=O)c2sc(NC(=O)c3ccncc3)nc2C)c1
- AC50 [1]: 32.4 µM (active)
- AC50 [2]: 22.2 µM (active)

SMILES: Clc1ccc(CNc2ncncc2-c2ccc3c(c2)OCO3)cc1
- AC50 [2]: 10 µM (active)

SMILES: O=[N+]([O-])c1ccc(-c2cn3nc(-c4ccccc4)c(-c4ccccc4)nc3n2)cc1
- EC50 [3]: > 99 µM (inactive)
- EC50 [4]: > 99 µM (inactive)
- EC50 [5]: > 53 µM (inactive)

SMILES: Clc1ccc(CNc2nccc(-c3ccc4[nH]ncc4c3)n2)cc1Cl
- AC50 [2]: 0.00677 µM (active)

SMILES: Cc1cc2c(ccc3nonc32)[nH]1
- AC50 [1]: 5.79 µM (active)

SMILES: CC(C)(C)CC(=O)Nc1ccc(-c2nc3cc(Cl)ccc3o2)cc1
- IC50 [6]: > 99 µM (inactive)
- IC50 [7]: > 99 µM (inactive)
- IC50 (Caspase-3): > 99 µM (inactive)
- IC50 [8]: > 99 µM (inactive)

SMILES: Cc1nc(SCc2nc3cc(Br)ccc3[nH]2)c2oc3ccccc3c2n1
- IC50 (Prothrombin): 40 µM (active)
- IC50 [9]: 50 µM (active)
- IC50 [10]: > 100 µM (inactive)

SMILES: N=C1/C(=C/c2ccc(O)cc2)C(=O)N=C2SN=C(SCc3ccccc3)N12
- IC50 (Phospholipase A2): 13.3 µM (active)
- IC50 (Cysteine protease ATG4B): 20.4 µM (inactive)

SMILES: CC(=NNC(S)=Nc1ccccc1Cl)c1ccccn1
- IC50 (Nonstructural protein 1): 21.7 µM (active)
- AC50 [11]: 3.46 µM (active)
- EC50 (HEK293 [12]): > 59.6 µM (inactive)
- AC50 (HEK293 [13]): 0.0577 µM (active)
- EC50 (HEK293 [14]): > 59.6 µM (inactive)

SMILES: Fc1ccc(NCc2ccccc2F)cc1Cl
- IC50 (Phospholipase A2): 8.79 µM (active)
- AC50 (Cytochrome P450 2C9): 31.6 µM (inconclusive)
- AC50 (Cytochrome P450 2D6): 17.8 µM (inconclusive)
- IC50 (Cysteine protease ATG4B): 13.3 µM (active)
- AC50 (Cytochrome P450 3A4): 20 µM (inconclusive)

SMILES: CC(=O)Nc1ccc2nc(-c3ccccc3)oc2c1
- IC50 [6]: 11.6 µM (active)
- IC50 [7]: 49.9 µM (active)
- IC50 (Caspase-3): 14.2 µM (active)
- IC50 [8]: 46.5 µM (active)
